Key:
[1] = for surface tension liquid-gas: Ring tensiometer; for mass density: 101.33 kPa, Liquid
[2] = xn = mol fraction of the nth substance listed; conditions: Ring tensiometer

OCc1ccccc1 [benzenemethanol]
[1]
Conditions	mass density [kg/m3]	surface tension liquid-gas [mN/m]
293.15 K	1045.2	39.05
298.15 K	1041.4	38.58
303.15 K	–	38.12
308.15 K	–	37.63
313.15 K	–	37.16
318.15 K	1025.8	36.63
323.15 K	–	36.18

OCc1ccccc1 [benzenemethanol] + CC(C)O
surface tension liquid-gas [mN/m], [2]
Conditions	x2 = 0	x2 = 0.0029	x2 = 0.005	x2 = 0.0076	x2 = 0.0117	x2 = 0.0207	x2 = 0.0329	x2 = 0.0494
293.15 K	39.05	37.69	37.53	37.21	36.95	36.79	36.56	36.06
298.15 K	38.58	37.3	37.09	36.8	36.53	36.37	36.15	35.53
303.15 K	38.12	36.95	36.68	36.43	36.13	35.97	35.78	35.09
308.15 K	37.63	36.62	36.32	36.05	35.75	35.55	35.41	34.61
313.15 K	37.16	36.29	35.92	35.68	35.39	35.14	35.04	34.11
318.15 K	36.63	35.89	35.48	35.27	35.04	34.73	34.62	33.63
323.15 K	36.18	35.55	35.04	34.92	34.64	34.29	34.22	33.22

OCc1ccccc1 [benzenemethanol] + CCC(C)O
surface tension liquid-gas [mN/m], [2]
Conditions	x2 = 0	x2 = 0.0026	x2 = 0.0056	x2 = 0.0078	x2 = 0.0107	x2 = 0.0246	x2 = 0.0366	x2 = 0.0512
293.15 K	39.05	37.5	37.14	36.95	36.4	36.07	35.65	35.32
298.15 K	38.58	37.08	36.75	36.52	36.05	35.64	35.25	34.88
303.15 K	38.12	36.63	36.31	36.12	35.72	35.18	34.83	34.4
308.15 K	37.63	36.2	35.97	35.71	35.39	34.77	34.46	34
313.15 K	37.16	35.75	35.55	35.31	35.03	34.37	34.03	33.54
318.15 K	36.63	35.35	35.17	34.9	34.67	33.95	33.62	33.07
323.15 K	36.18	34.95	34.8	34.49	34.34	33.5	33.24	32.7

OCc1ccccc1 [benzenemethanol] + CCCC(C)O
surface tension liquid-gas [mN/m], [2]
Conditions	x2 = 0	x2 = 0.0026	x2 = 0.0055	x2 = 0.0093	x2 = 0.0129	x2 = 0.0238	x2 = 0.0344	x2 = 0.0542
293.15 K	39.05	36.98	36.71	36.43	35.99	35.72	35.49	35.08
298.15 K	38.58	36.48	36.22	35.95	35.54	35.32	35.08	34.61
303.15 K	38.12	35.95	35.7	35.53	35.15	34.9	34.71	34.1
308.15 K	37.63	35.46	35.18	35	34.73	34.49	34.32	33.61
313.15 K	37.16	34.97	34.73	34.54	34.33	34.05	33.93	33.1
318.15 K	36.63	34.44	34.18	34.07	33.91	33.63	33.49	32.69
323.15 K	36.18	33.91	33.65	33.56	33.55	33.28	33.11	32.19

OCc1ccccc1 [benzenemethanol] + CCCCCO
surface tension liquid-gas [mN/m], [2]
Conditions	x2 = 0	x2 = 0.0037	x2 = 0.0052	x2 = 0.0083	x2 = 0.0117	x2 = 0.0213	x2 = 0.0336	x2 = 0.0536
293.15 K	39.05	36.88	36.73	36.56	36.35	35.93	35.63	35.22
298.15 K	38.58	36.41	36.34	36.12	35.93	35.5	35.21	34.76
303.15 K	38.12	36.05	35.92	35.73	35.5	35.05	34.79	34.31
308.15 K	37.63	35.64	35.51	35.28	35.1	34.64	34.35	33.8
313.15 K	37.16	35.26	35.1	34.86	34.69	34.24	33.95	33.34
318.15 K	36.63	34.86	34.7	34.47	34.29	33.82	33.52	32.95
323.15 K	36.18	34.47	34.31	34.03	33.89	33.4	33.08	32.43

OCc1ccccc1 [benzenemethanol] + CCCCO
surface tension liquid-gas [mN/m], [2]
Conditions	x2 = 0	x2 = 0.0034	x2 = 0.0044	x2 = 0.0071	x2 = 0.0117	x2 = 0.0213	x2 = 0.0303	x2 = 0.0492
293.15 K	39.05	37.89	37.67	37.12	36.88	36.62	36.46	35.94
298.15 K	38.58	37.43	37.23	36.67	36.48	36.17	35.99	35.49
303.15 K	38.12	36.95	36.79	36.22	36.03	35.68	35.52	35.06
308.15 K	37.63	36.5	36.36	35.77	35.6	35.18	35.02	34.64
313.15 K	37.16	36.06	35.93	35.33	35.1	34.74	34.57	34.16
318.15 K	36.63	35.63	35.51	34.84	34.66	34.27	34.02	33.74
323.15 K	36.18	35.24	35.08	34.44	34.18	33.84	33.59	33.35

OCc1ccccc1 [benzenemethanol] + CCCO
surface tension liquid-gas [mN/m], [2]
Conditions	x2 = 0	x2 = 0.003	x2 = 0.0062	x2 = 0.0077	x2 = 0.0116	x2 = 0.0212	x2 = 0.0326	x2 = 0.0498
293.15 K	39.05	37.57	37.01	36.88	36.75	36.35	35.95	35.62
298.15 K	38.58	37.07	36.62	36.48	36.36	35.98	35.6	35.22
303.15 K	38.12	36.6	36.23	36.12	36	35.62	35.3	34.86
308.15 K	37.63	36.15	35.84	35.74	35.63	35.23	34.98	34.48
313.15 K	37.16	35.64	35.44	35.36	35.2	34.83	34.67	34.14
318.15 K	36.63	35.19	35.07	35	34.85	34.5	34.38	33.76
323.15 K	36.18	34.73	34.68	34.64	34.44	34.13	34.03	33.41

CCCCO [butan-1-ol]
[1]
Conditions	mass density [kg/m3]	surface tension liquid-gas [mN/m]
293.15 K	810.4	24.16
298.15 K	806.5	23.7
303.15 K	–	23.26
308.15 K	–	22.78
313.15 K	–	22.39
318.15 K	790.9	21.99
323.15 K	–	21.53

CCCCO [butan-1-ol] + OCc1ccccc1
[2], x1 = 1
Conditions	surface tension liquid-gas [mN/m]
293.15 K	24.16
298.15 K	23.7
303.15 K	23.26
308.15 K	22.78
313.15 K	22.39
318.15 K	21.99
323.15 K	21.53

CCC(C)O (stereo not drawn) [butan-2-ol] + OCc1ccccc1
[2], x1 = 1
Conditions	surface tension liquid-gas [mN/m]
293.15 K	23.18
298.15 K	22.74
303.15 K	22.38
308.15 K	21.94
313.15 K	21.56
318.15 K	21.11
323.15 K	20.76

CCCCCO [pentan-1-ol] + OCc1ccccc1
[2], x1 = 1
Conditions	surface tension liquid-gas [mN/m]
293.15 K	25.69
298.15 K	25.29
303.15 K	24.86
308.15 K	24.49
313.15 K	24.06
318.15 K	23.67
323.15 K	23.3

CCCC(C)O (stereo not drawn) [pentan-2-ol] + OCc1ccccc1
[2], x1 = 1
Conditions	surface tension liquid-gas [mN/m]
293.15 K	23.7
298.15 K	23.28
303.15 K	22.87
308.15 K	22.43
313.15 K	22.04
318.15 K	21.6
323.15 K	21.16

CCCO [propan-1-ol] + OCc1ccccc1
[2], x1 = 1
Conditions	surface tension liquid-gas [mN/m]
293.15 K	23.73
298.15 K	23.3
303.15 K	22.9
308.15 K	22.52
313.15 K	22.1
318.15 K	21.68
323.15 K	21.27

CC(C)O [propan-2-ol] + OCc1ccccc1
[2], x1 = 1
Conditions	surface tension liquid-gas [mN/m]
293.15 K	21.3
298.15 K	20.95
303.15 K	20.55
308.15 K	20.2
313.15 K	19.83
318.15 K	19.47
323.15 K	19.09

— the NIST ThermoML archive (doi:10.1021/je0500431)
